Among the test systems are SF-268; MOLT-4; MDA-MB-435; K562; RPMI-8226; HT-29; SK-OV-3; SK-MEL-5; SK-MEL-2; M14; IGROV-1; SW-620; TK-10; KM12; RXF 393; U-251; COLO 205; PC-3; CAKI-1.
Experiment in all cases: NCI-60 cell line screen, 48 h

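These data come from cells grown in 96-well plates and exposed to compound for 48 hours at five concentrations. At the GI50, growth is halved.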 Calls of active or inactive are those of the source. No stated cut-off is given here; in the data, active = GI50 up to about 1.1 µM and inactive = higher. Some results are limits rather than exact numbers.

For the molecule `CCOC(=O)c1cc([N+](=O)[O-])cc([N+](=O)[O-])c1Sc1[nH]cnc2ncnc1-2`, the GI50 with SF-268 was 3.32 µM (inactive); in the experiment on MOLT-4 it was 1.24 µM (inactive); in the experiment on MDA-MB-435, 1.6 µM (inactive); in the experiment with K562, 0.661 µM (active); in the experiment on RPMI-8226, 1.65 µM (inactive); in the experiment with HT-29, 2.37 µM (inactive). Moreover, the GI50 in the experiment with SK-OV-3 is 11 µM (inactive); with SK-MEL-5 it was 5.94 µM (inactive); with SK-MEL-2, 2.93 µM (inactive); with M14, 0.869 µM (active); in the experiment on IGROV-1, 2.31 µM (inactive); with SW-620, 2.42 µM (inactive). For the same molecule, the GI50 in the experiment with TK-10 was 4.5 µM (inactive); with KM12, 5.25 µM (inactive); with RXF 393, 1.82 µM (inactive); with U-251, 8.71 µM (inactive); in the experiment on COLO 205 it was 2.17 µM (inactive); in the experiment with PC-3, 3.73 µM (inactive). In addition, the GI50 with CAKI-1 was 1.85 µM (inactive).

For `O=C(Nc1ccc([As](=O)(O)O)cc1)Nc1cccc(Cl)c1Cl`, the GI50 with SF-268 is 45.7 µM (inactive); in the experiment on MDA-MB-435, > 100 µM (inactive); in the experiment with K562, 97.5 µM (inactive); in the experiment with RPMI-8226, > 100 µM (inactive); with HT-29, > 100 µM (inactive); in the experiment with SK-OV-3, > 100 µM (inactive). The GI50 in the experiment with SK-MEL-5 was > 100 µM (inactive); in the experiment on SK-MEL-2 it was > 100 µM (inactive); in the experiment on M14, > 100 µM (inactive); in the experiment with IGROV-1, > 100 µM (inactive); in the experiment on SW-620, > 100 µM (inactive); with TK-10, 89.1 µM (inactive). In addition, the GI50 with KM12 is > 100 µM (inactive); in the experiment with RXF 393, 22.2 µM (inactive); in the experiment on U-251 it was 36.5 µM (inactive); with COLO 205 it was > 100 µM (inactive); in the experiment with PC-3 it was 83.9 µM (inactive); with CAKI-1 it was > 100 µM (inactive).

Regarding `Cc1cc(NS(=O)(=O)c2ccc(NC(=O)c3ccc4nc5ccccc5c(Nc5ccc(S(N)(=O)=O)cc5)c4c3)cc2)no1`, the GI50 with SF-268 is 30.5 µM (inactive); with MOLT-4, 22.3 µM (inactive); in the experiment on MDA-MB-435, 21.4 µM (inactive); in the experiment with K562, 19.8 µM (inactive); in the experiment with RPMI-8226, 24.7 µM (inactive); in the experiment on HT-29 it was 28.6 µM (inactive). The GI50 with SK-OV-3 was > 100 µM (inactive); with SK-MEL-5, 25.1 µM (inactive); in the experiment on SK-MEL-2, 23.9 µM (inactive); in the experiment on M14, 30 µM (inactive); in the experiment on IGROV-1, 33.4 µM (inactive); with SW-620 it was 28.1 µM (inactive). Further, the GI50 in the experiment with TK-10 was 30.5 µM (inactive); in the experiment on KM12, 22.9 µM (inactive); in the experiment with RXF 393, 23.4 µM (inactive); in the experiment on U-251, 25.5 µM (inactive); with COLO 205, 20.6 µM (inactive); in the experiment with PC-3, 32.3 µM (inactive). For the same molecule, in the experiment with CAKI-1, the GI50 is 38.1 µM (inactive).

Consider `O=C(NNC(=S)Nc1cccc(Cl)c1)c1cc(-c2ccccc2)nc2ccccc12`, for which the GI50 was 17 µM (inactive) with SF-268; 28 µM (inactive) with MOLT-4; 16 µM (inactive) with MDA-MB-435; 20.7 µM (inactive) in the experiment with K562; 6.68 µM (inactive) in the experiment on RPMI-8226; 20.4 µM (inactive) in the experiment on HT-29. In addition, the GI50 with SK-OV-3 is 19.9 µM (inactive); in the experiment on SK-MEL-5, 16.9 µM (inactive); in the experiment with SK-MEL-2, 13.8 µM (inactive); in the experiment on M14 it was 17.5 µM (inactive); with IGROV-1 it was 18.7 µM (inactive); with SW-620 it was 14.6 µM (inactive). Besides, the GI50 was 15.4 µM (inactive) in the experiment on TK-10; 18.5 µM (inactive) in the experiment with KM12; 16.1 µM (inactive) in the experiment with RXF 393; 12.3 µM (inactive) with U-251; 12.9 µM (inactive) with COLO 205; 15.1 µM (inactive) with PC-3. In the experiment on CAKI-1, the GI50 was 19.3 µM (inactive).

For `CC(=O)N1C(Nc2ccccc2)CCN1c1ccccc1` (stereo not given), the GI50 in the experiment on SF-268 is 3.54 µM (inactive); in the experiment with MOLT-4, 9.77 µM (inactive); in the experiment with MDA-MB-435 it was 3.68 µM (inactive); in the experiment with K562 it was 4.04 µM (inactive); in the experiment with RPMI-8226, > 10 µM (inactive); in the experiment on HT-29 it was 5.77 µM (inactive). Also, the GI50 with SK-OV-3 is > 10 µM (inactive); in the experiment on SK-MEL-5, > 10 µM (inactive); with SK-MEL-2, > 10 µM (inactive); in the experiment with M14 it was > 10 µM (inactive); in the experiment with IGROV-1, > 10 µM (inactive); in the experiment with SW-620, 5.64 µM (inactive). Also, the GI50 was > 10 µM (inactive) in the experiment on TK-10; > 10 µM (inactive) with RXF 393; > 10 µM (inactive) with COLO 205; 4.01 µM (inactive) with PC-3; 8.73 µM (inactive) in the experiment with CAKI-1.

As for `Nc1c(/C=C/c2cc3cc(C4=NCCN4)ccc3o2)[nH]c2cc(C3=NCCN3)ccc12`, the GI50 with SF-268 is 46.7 µM (inactive); in the experiment on MOLT-4, 28.9 µM (inactive); with MDA-MB-435, 33.1 µM (inactive); with K562, 41.3 µM (inactive); in the experiment on RPMI-8226, 39 µM (inactive); in the experiment on HT-29, 34.3 µM (inactive). Also, the GI50 in the experiment with SK-OV-3 was > 100 µM (inactive); in the experiment on SK-MEL-5 it was 30.8 µM (inactive); with SK-MEL-2 it was > 100 µM (inactive); in the experiment with M14, 38.5 µM (inactive); in the experiment with IGROV-1 it was 39.1 µM (inactive); in the experiment on SW-620, 34.4 µM (inactive). For the same molecule, the GI50 with TK-10 was 31.6 µM (inactive); in the experiment with KM12, 34.4 µM (inactive); with RXF 393, 43 µM (inactive); in the experiment on U-251, 38.3 µM (inactive); in the experiment on COLO 205, 41.3 µM (inactive); in the experiment with PC-3, 34.6 µM (inactive). Moreover, in the experiment with CAKI-1, the GI50 was 38.3 µM (inactive).

`CC(C)(C)C1CCC2c3c([nH]c4ccccc34)C3C(=O)N(c4cccc(Cl)c4)C(=O)C3C2C1` (stereo not given): the GI50 in the experiment on SF-268 was 13 µM (inactive); in the experiment on MOLT-4, 1.85 µM (inactive); in the experiment on MDA-MB-435, 10.5 µM (inactive); in the experiment with K562, 2.44 µM (inactive); in the experiment on RPMI-8226, 9.27 µM (inactive); in the experiment with HT-29 it was 6.38 µM (inactive). The GI50 is 24.1 µM (inactive) in the experiment with SK-OV-3; 13.5 µM (inactive) in the experiment with SK-MEL-5; 17 µM (inactive) with SK-MEL-2; 9.98 µM (inactive) with M14; 13.8 µM (inactive) in the experiment on IGROV-1; 9.62 µM (inactive) with SW-620. Besides, the GI50 in the experiment on TK-10 is 16.8 µM (inactive); with KM12 it was 5.01 µM (inactive); in the experiment with RXF 393, 8.36 µM (inactive); with U-251, 13.9 µM (inactive); in the experiment on COLO 205, 12 µM (inactive); with PC-3 it was 7.1 µM (inactive). In addition, in the experiment on CAKI-1, the GI50 was 17.8 µM (inactive).

With `N=C(N)NCCCC(NC(=O)OCCCCCn1ccc(N)nc1=O)C(=O)O` (stereo not given), the GI50 with SF-268, with MOLT-4, in the experiment with MDA-MB-435, in the experiment with K562, in the experiment on RPMI-8226 and in the experiment with HT-29 was > 100 µM (inactive) in each case. The GI50 with SK-OV-3, in the experiment with SK-MEL-2, in the experiment on M14, in the experiment on IGROV-1, in the experiment on SW-620 and in the experiment on TK-10 was > 100 µM (inactive) each time. In addition, the GI50 in the experiment with KM12, in the experiment on RXF 393, in the experiment on U-251, in the experiment on COLO 205, in the experiment on PC-3 and in the experiment with CAKI-1 was > 100 µM (inactive) throughout.

`O=c1[nH]c(=O)n(C2C(CO)OC(CO)C2O)cc1F` (stereo not given): the GI50 in the experiment with SF-268, in the experiment with MOLT-4, with MDA-MB-435, in the experiment with K562, in the experiment with RPMI-8226 and with HT-29 was > 100 µM (inactive) each time. The GI50 in the experiment with SK-OV-3, with SK-MEL-5, in the experiment on SK-MEL-2, in the experiment with M14, with IGROV-1 and in the experiment with SW-620 was > 100 µM (inactive) in each case. Moreover, the GI50 in the experiment on TK-10, with KM12, with RXF 393, with U-251, in the experiment with COLO 205 and with PC-3 was > 100 µM (inactive) each time. The GI50 in the experiment with CAKI-1 was > 100 µM (inactive).

With `Nc1ccc2c(=O)cc(-c3ccc(Br)s3)[nH]c2n1`, the GI50 was 6.22 µM (inactive) in the experiment on SF-268; 2.33 µM (inactive) with MOLT-4; 0.32 µM (active) with MDA-MB-435; 0.522 µM (active) in the experiment with K562; 1.89 µM (inactive) in the experiment with RPMI-8226; 4.74 µM (inactive) in the experiment on HT-29. Further, the GI50 was 3.94 µM (inactive) in the experiment with SK-OV-3; 1.35 µM (inactive) in the experiment with SK-MEL-5; > 100 µM (inactive) with SK-MEL-2; 3.12 µM (inactive) in the experiment with M14; 3.85 µM (inactive) in the experiment on IGROV-1; 1.12 µM (active) in the experiment on SW-620. Further, the GI50 in the experiment with TK-10 is 11.7 µM (inactive); in the experiment on KM12, 0.673 µM (active); in the experiment on RXF 393, 3.71 µM (inactive); with U-251, 3.61 µM (inactive); in the experiment with COLO 205, 2.5 µM (inactive); in the experiment with PC-3, 2.74 µM (inactive). Moreover, in the experiment on CAKI-1, the GI50 is 4.46 µM (inactive).

As for `CCc1nc(N)nc(N)c1-c1ccc(NCCN)c([N+](=O)[O-])c1`, the GI50 was 7.1 µM (inactive) with SF-268; 7.16 µM (inactive) with MOLT-4; 7.13 µM (inactive) in the experiment with MDA-MB-435; 1.09 µM (active) in the experiment with K562; 29.6 µM (inactive) in the experiment on RPMI-8226; 6.11 µM (inactive) in the experiment with HT-29. The GI50 with SK-OV-3 was 82.8 µM (inactive); in the experiment with SK-MEL-5, 9.79 µM (inactive); in the experiment on SK-MEL-2, 46.7 µM (inactive); in the experiment on M14, 8.63 µM (inactive); with IGROV-1, 8.97 µM (inactive); in the experiment with SW-620, 5 µM (inactive). In addition, the GI50 in the experiment with TK-10 is > 88.7 µM (inactive); in the experiment on KM12 it was 17.7 µM (inactive); in the experiment on RXF 393 it was 39 µM (inactive); with U-251, 9.08 µM (inactive); in the experiment with COLO 205 it was 14.2 µM (inactive); in the experiment with PC-3, 6.53 µM (inactive). For the same molecule, in the experiment with CAKI-1, the GI50 was 53.1 µM (inactive).

The record behind these values is ChEMBL document CHEMBL1201862, “PubChem BioAssay data set” (2004).
